How the values were obtained:
Assay type in all cases: cell-based
Conditions in all cases: compounds at 50 nM and 500 nM
[1] = target: T1, WEE1 (Homo sapiens, UniProt P30291+Q96SW2); test: Western blot degradation of WEE1 in hPBMCs (24 h)
T1 construct: The supernatant was aspirated as the extracted total cell protein; endogenous in cells; host or cells: human peripheral blood mononuclear cells (hPBMCs)
Method in brief: (§1)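 hPBMCs (1×10^6 cells/mL) exposed to compound at 50 nM and 500 nM for 24 h, DMSO as reference. Lysates run on SDS-PAGE and immunoblotted. Band grayscale normalized to internal control gives % protein remaining; DC50 from fitted concentration-response of band intensity versus DMSO.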

[2] = target: T2, IKZF1 (Homo sapiens, UniProt Q13422+Q96SW2); test: Western blot degradation of IKZF1 in hPBMCs (24 h)
T2 construct: The supernatant was aspirated as the extracted total cell protein; endogenous in cells; host or cells: human peripheral blood mononuclear cells (hPBMCs)
T2 sequence (Q13422 whole entry): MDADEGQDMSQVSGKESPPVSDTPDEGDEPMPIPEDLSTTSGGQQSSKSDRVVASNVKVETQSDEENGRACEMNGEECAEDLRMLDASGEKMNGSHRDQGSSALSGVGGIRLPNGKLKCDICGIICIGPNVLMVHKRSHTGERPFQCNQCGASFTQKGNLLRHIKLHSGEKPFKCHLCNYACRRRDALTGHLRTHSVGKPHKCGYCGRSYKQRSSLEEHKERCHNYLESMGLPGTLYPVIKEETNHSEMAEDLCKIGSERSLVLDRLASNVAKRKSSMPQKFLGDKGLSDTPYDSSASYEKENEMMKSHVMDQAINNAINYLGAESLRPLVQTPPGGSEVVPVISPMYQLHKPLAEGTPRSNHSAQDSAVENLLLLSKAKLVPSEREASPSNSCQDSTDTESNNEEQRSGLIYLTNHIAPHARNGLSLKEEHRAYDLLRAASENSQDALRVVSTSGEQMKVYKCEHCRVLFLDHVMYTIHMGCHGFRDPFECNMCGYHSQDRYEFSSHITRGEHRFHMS
T2 sequence (Q96SW2 whole entry): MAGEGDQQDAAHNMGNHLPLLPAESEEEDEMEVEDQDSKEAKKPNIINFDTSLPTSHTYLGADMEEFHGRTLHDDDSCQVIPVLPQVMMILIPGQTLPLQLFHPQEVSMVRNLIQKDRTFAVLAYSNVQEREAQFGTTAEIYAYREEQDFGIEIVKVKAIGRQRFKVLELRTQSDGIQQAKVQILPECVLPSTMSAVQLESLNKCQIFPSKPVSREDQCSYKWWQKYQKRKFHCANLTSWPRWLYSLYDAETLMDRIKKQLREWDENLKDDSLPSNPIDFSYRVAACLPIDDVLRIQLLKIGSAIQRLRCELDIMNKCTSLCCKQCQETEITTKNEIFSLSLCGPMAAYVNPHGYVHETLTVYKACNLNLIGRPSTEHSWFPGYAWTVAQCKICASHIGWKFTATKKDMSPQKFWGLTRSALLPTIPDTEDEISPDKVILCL
T2 sequence (Q16531 whole entry partner): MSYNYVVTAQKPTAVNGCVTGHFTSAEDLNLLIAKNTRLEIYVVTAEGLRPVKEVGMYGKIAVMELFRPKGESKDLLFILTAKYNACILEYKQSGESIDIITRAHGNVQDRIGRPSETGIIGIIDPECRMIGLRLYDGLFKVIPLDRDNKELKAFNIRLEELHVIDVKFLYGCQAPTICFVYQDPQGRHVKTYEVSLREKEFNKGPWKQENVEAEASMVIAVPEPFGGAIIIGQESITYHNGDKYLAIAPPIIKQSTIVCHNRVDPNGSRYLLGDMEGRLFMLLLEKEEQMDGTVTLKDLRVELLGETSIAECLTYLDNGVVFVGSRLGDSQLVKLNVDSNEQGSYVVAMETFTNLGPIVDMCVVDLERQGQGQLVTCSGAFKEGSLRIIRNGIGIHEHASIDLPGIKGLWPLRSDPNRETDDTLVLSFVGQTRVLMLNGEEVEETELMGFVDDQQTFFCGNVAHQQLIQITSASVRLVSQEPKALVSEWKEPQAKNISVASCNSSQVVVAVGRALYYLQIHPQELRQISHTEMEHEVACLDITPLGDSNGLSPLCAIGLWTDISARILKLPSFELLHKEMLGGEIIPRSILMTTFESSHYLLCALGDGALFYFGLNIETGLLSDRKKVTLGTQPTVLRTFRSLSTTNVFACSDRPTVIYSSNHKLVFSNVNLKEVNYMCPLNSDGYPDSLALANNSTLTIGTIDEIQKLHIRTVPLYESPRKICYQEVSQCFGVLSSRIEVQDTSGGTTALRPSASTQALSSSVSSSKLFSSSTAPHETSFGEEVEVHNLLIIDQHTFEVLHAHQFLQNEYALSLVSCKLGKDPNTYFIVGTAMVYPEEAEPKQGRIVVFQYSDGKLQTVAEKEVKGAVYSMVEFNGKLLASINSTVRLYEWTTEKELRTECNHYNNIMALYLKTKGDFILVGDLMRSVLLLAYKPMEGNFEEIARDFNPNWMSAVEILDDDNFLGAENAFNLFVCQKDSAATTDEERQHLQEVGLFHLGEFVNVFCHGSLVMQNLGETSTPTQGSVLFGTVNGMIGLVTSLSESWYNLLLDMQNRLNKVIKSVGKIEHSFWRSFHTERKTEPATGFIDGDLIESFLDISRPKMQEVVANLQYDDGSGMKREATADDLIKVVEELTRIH
Method in brief: as §1

[3] = target: T3, IKZF2 (Homo sapiens, UniProt Q96SW2+Q9UKS7); test: Western blot degradation of IKZF2 in hPBMCs (24 h)
T3 construct: The supernatant was aspirated as the extracted total cell protein; endogenous in cells; host or cells: human peripheral blood mononuclear cells (hPBMCs)
Method in brief: as §1

[4] = target: T4, IKZF3 (Homo sapiens, UniProt Q96SW2+Q9UKT9); test: Western blot degradation of IKZF3 in hPBMCs (24 h)
T4 construct: The supernatant was aspirated as the extracted total cell protein; endogenous in cells; host or cells: human peripheral blood mononuclear cells (hPBMCs)
T4 sequence (Q9UKT9 whole entry): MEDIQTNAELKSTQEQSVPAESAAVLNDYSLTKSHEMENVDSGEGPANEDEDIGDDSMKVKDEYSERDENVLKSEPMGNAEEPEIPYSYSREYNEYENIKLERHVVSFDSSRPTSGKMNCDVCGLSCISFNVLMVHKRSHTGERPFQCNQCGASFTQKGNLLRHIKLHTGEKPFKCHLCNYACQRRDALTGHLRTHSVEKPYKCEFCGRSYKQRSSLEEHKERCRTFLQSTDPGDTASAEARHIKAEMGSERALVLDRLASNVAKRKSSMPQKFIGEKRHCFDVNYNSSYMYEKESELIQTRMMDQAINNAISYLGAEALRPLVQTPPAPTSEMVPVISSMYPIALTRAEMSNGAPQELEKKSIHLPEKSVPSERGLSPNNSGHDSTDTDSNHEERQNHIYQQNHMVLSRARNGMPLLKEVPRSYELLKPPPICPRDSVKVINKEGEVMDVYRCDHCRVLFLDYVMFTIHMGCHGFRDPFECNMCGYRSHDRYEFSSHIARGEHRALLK
T4 sequence (Q96SW2 whole entry): as the sequence (Q96SW2 whole entry) above
T4 sequence (Q16531 whole entry partner): as the sequence (Q16531 whole entry partner) above
Method in brief: as §1

[5] = target: T5, CK1α (Homo sapiens, UniProt P48729+Q96SW2); test: Western blot degradation of CK1α in hPBMCs (24 h)
T5 construct: The supernatant was aspirated as the extracted total cell protein; endogenous in cells; host or cells: human peripheral blood mononuclear cells (hPBMCs)
T5 sequence (P48729 whole entry): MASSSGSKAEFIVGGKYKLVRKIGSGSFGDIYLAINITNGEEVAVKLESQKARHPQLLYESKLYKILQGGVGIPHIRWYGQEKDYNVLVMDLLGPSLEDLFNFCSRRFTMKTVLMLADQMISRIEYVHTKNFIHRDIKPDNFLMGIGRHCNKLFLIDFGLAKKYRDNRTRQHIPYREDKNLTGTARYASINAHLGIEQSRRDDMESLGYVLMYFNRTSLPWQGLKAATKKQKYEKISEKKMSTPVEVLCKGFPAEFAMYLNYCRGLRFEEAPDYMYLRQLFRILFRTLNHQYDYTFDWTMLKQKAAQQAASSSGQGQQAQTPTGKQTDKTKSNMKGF
T5 sequence (Q96SW2 whole entry): as the sequence (Q96SW2 whole entry) above
T5 sequence (Q16531 whole entry partner): as the sequence (Q16531 whole entry partner) above
Method in brief: as §1

[6] = target: T6, GSPT1 (Homo sapiens, UniProt P15170+Q96SW2); test: Western blot degradation of GSPT1 in hPBMCs (24 h)
T6 construct: The supernatant was aspirated as the extracted total cell protein; endogenous in cells; host or cells: human peripheral blood mononuclear cells (hPBMCs)
T6 sequence (P15170 whole entry): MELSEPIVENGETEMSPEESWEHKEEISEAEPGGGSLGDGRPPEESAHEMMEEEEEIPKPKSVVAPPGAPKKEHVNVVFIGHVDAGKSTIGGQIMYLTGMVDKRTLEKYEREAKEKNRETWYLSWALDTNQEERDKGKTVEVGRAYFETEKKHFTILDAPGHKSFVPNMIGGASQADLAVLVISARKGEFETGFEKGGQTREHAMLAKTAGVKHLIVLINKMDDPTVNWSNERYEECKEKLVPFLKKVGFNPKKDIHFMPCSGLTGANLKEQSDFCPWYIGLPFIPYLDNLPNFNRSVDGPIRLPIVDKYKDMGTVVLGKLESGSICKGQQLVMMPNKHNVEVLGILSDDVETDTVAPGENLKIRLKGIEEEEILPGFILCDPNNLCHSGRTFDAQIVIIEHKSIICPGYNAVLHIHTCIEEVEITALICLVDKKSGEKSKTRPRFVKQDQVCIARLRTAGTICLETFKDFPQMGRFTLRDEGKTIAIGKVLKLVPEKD
T6 sequence (Q96SW2 whole entry): as the sequence (Q96SW2 whole entry) above
T6 sequence (Q16531 whole entry partner): as the sequence (Q16531 whole entry partner) above
Method in brief: as §1

T1 sequence (P30291 whole entry): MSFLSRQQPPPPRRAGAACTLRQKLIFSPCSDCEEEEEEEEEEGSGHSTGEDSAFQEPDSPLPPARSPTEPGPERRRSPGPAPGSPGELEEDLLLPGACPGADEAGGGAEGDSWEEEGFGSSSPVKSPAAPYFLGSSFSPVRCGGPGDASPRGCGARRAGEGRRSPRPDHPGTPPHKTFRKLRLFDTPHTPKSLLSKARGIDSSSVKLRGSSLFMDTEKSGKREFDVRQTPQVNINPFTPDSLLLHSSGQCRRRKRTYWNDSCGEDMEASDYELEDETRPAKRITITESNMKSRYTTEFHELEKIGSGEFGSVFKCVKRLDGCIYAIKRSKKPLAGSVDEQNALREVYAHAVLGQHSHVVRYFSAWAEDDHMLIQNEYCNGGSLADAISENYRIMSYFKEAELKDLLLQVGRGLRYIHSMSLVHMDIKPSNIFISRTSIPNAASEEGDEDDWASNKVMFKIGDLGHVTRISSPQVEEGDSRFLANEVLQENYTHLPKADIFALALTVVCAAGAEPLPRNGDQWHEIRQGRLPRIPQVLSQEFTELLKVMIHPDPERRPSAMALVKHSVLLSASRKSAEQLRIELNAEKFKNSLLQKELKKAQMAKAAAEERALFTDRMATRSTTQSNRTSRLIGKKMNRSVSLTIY
T1 sequence (Q96SW2 whole entry): as the sequence (Q96SW2 whole entry) above
T1 sequence (Q16531 whole entry partner): as the sequence (Q16531 whole entry partner) above

Row | SMILES | WEE1 substrate protein remaining % [1] | IKZF1 substrate protein remaining % [2] | IKZF2 substrate protein remaining % [3] | IKZF3 substrate protein remaining % [4] | CK1α substrate protein remaining % [5] | GSPT1 substrate protein remaining % [6]
1 | O=C1CCN(N2C(=O)c3ccc(CN4CCC(N5CCCc6cc(F)ccc65)CC4)cc3C2=O)C(=O)N1 [GT-07681, 2-(2,4-dioxotetrahydropyrimidin-1(2H)-yl)-5-((4-(6-fluoro-3,4-dihydroquinolin-1(2H)-yl)piperidin-1-yl)methyl)isoindoline-1,3-dione] | B (80%< substrate protein remaining % ≤100%) | A (0% ≤ substrate protein remaining % ≤80%) | B (80%< substrate protein remaining % ≤100%) | B (80%< substrate protein remaining % ≤100%) | B (80%< substrate protein remaining % ≤100%) | A (0% ≤ substrate protein remaining % ≤80%)
2 | O=C1CCN(N2C(=O)c3ccc(CN4CCC(N5CCOc6cc(F)ccc65)CC4)cc3C2=O)C(=O)N1 [GT-07682, 2-(2,4-dioxotetrahydropyrimidin-1(2H)-yl)-5-((4-(7-fluoro-2,3-dihydro-4H-benzo[b][1,4]oxazin-4-yl)piperidin-1-yl)methyl)isoindoline-1,3-dione] | B (80%< substrate protein remaining % ≤100%) | B (80%< substrate protein remaining % ≤100%) | B (80%< substrate protein remaining % ≤100%) | B (80%< substrate protein remaining % ≤100%) | B (80%< substrate protein remaining % ≤100%) | A (0% ≤ substrate protein remaining % ≤80%)
3 | O=C1CCN(N2C(=O)c3ccc(CN4CCC(N5C(=O)COc6cc(F)ccc65)CC4)cc3C2=O)C(=O)N1 [GT-07683, 2-(2,4-dioxotetrahydropyrimidin-1(2H)-yl)-5-((4-(7-fluoro-3-oxo-2,3-dihydro-4H-benzo[b][1,4]oxazin-4-yl)piperidin-1-yl)methyl)isoindoline-1,3-dione] | B (80%< substrate protein remaining % ≤100%) | B (80%< substrate protein remaining % ≤100%) | B (80%< substrate protein remaining % ≤100%) | B (80%< substrate protein remaining % ≤100%) | B (80%< substrate protein remaining % ≤100%) | A (0% ≤ substrate protein remaining % ≤80%)
4 | O=C1CCN(N2C(=O)c3ccc(CN4CCC(C5CCOc6cc(F)ccc65)CC4)cc3C2=O)C(=O)N1 (stereo not drawn) [GT-07684, 2-(2,4-dioxotetrahydropyrimidin-1(2H)-yl)-5-((4-(7-fluorochroman-4-yl)piperidin-1-yl)methyl)isoindoline-1,3-dione] | B (80%< substrate protein remaining % ≤100%) | B (80%< substrate protein remaining % ≤100%) | B (80%< substrate protein remaining % ≤100%) | B (80%< substrate protein remaining % ≤100%) | B (80%< substrate protein remaining % ≤100%) | A (0% ≤ substrate protein remaining % ≤80%)
5 | O=C1CCN(N2C(=O)c3ccc(CN4CCC(=C5CCOc6cc(F)ccc65)CC4)cc3C2=O)C(=O)N1 [GT-07685, 2-(2,4-dioxotetrahydropyrimidin-1(2H)-yl)-5-((4-(7-fluorochroman-4-ylidene)piperidin-1-yl)methyl)isoindoline-1,3-dione] | B (80%< substrate protein remaining % ≤100%) | B (80%< substrate protein remaining % ≤100%) | B (80%< substrate protein remaining % ≤100%) | B (80%< substrate protein remaining % ≤100%) | B (80%< substrate protein remaining % ≤100%) | A (0% ≤ substrate protein remaining % ≤80%)
6 | O=C1CCN(N2C(=O)c3ccc(CN4CCC(c5cccc6c(F)cccc56)CC4)cc3C2=O)C(=O)N1 [GT-07686, 2-(2,4-dioxotetrahydropyrimidin-1(2H)-yl)-5-((4-(5-fluoronaphthalen-1-yl)piperidin-1-yl)methyl)isoindoline-1,3-dione] | B (80%< substrate protein remaining % ≤100%) | B (80%< substrate protein remaining % ≤100%) | B (80%< substrate protein remaining % ≤100%) | B (80%< substrate protein remaining % ≤100%) | B (80%< substrate protein remaining % ≤100%) | A (0% ≤ substrate protein remaining % ≤80%)
7 | O=C1CCN(N2C(=O)c3ccc(CN4CC=C(c5cccc6c(F)cccc56)CC4)cc3C2=O)C(=O)N1 [GT-07687, 2-(2,4-dioxotetrahydropyrimidin-1(2H)-yl)-5-((4-(5-fluoronaphthalen-1-yl)-3,6-dihydropyridin-1(2H)-yl)methyl)isoindoline-1,3-dione] | B (80%< substrate protein remaining % ≤100%) | B (80%< substrate protein remaining % ≤100%) | B (80%< substrate protein remaining % ≤100%) | B (80%< substrate protein remaining % ≤100%) | B (80%< substrate protein remaining % ≤100%) | A (0% ≤ substrate protein remaining % ≤80%)
8 | O=C1CCN(N2C(=O)c3ccc(CN4CCC(c5cccc6cnccc56)CC4)cc3C2=O)C(=O)N1 [GT-07688, 2-(2,4-dioxotetrahydropyrimidin-1(2H)-yl)-5-((4-(isoquinolin-5-yl)piperidin-1-yl)methyl)isoindoline-1,3-dione] | B (80%< substrate protein remaining % ≤100%) | B (80%< substrate protein remaining % ≤100%) | B (80%< substrate protein remaining % ≤100%) | B (80%< substrate protein remaining % ≤100%) | B (80%< substrate protein remaining % ≤100%) | A (0% ≤ substrate protein remaining % ≤80%)
9 | O=C1CCN(N2C(=O)c3ccc(CN4CCC(c5ccnc6cc(F)ccc56)CC4)cc3C2=O)C(=O)N1 [GT-07689, 2-(2,4-dioxotetrahydropyrimidin-1(2H)-yl)-5-((4-(7-fluoroquinolin-4-yl)piperidin-1-yl)methyl)isoindoline-1,3-dione] | B (80%< substrate protein remaining % ≤100%) | B (80%< substrate protein remaining % ≤100%) | B (80%< substrate protein remaining % ≤100%) | B (80%< substrate protein remaining % ≤100%) | A (0% ≤ substrate protein remaining % ≤80%) | A (0% ≤ substrate protein remaining % ≤80%)
10 | O=C1CCN(N2Cc3cc(CN4CC(C5CCOc6cc(F)ccc65)C4)ccc3C2=O)C(=O)N1 (stereo not drawn) [GT-07690, 1-(5-((3-(7-fluorochroman-4-yl)azetidin-1-yl)methyl)-1-oxoisoindolin-2-yl)dihydropyrimidine-2,4(1H,3H)-dione] | B (80%< substrate protein remaining % ≤100%) | B (80%< substrate protein remaining % ≤100%) | A (0% ≤ substrate protein remaining % ≤80%) | B (80%< substrate protein remaining % ≤100%) | A (0% ≤ substrate protein remaining % ≤80%) | A (0% ≤ substrate protein remaining % ≤80%)
11 | O=C1CCN(N2Cc3cc(CN4CC(c5ccnc6cc(F)ccc56)C4)ccc3C2=O)C(=O)N1 [GT-07711, 1-(5-((3-(7-fluoroquinolin-4-yl)azetidin-1-yl)methyl)-1-oxoisoindolin-2-yl)dihydropyrimidine-2,4(1H,3H)-dione] | B (80%< substrate protein remaining % ≤100%) | A (0% ≤ substrate protein remaining % ≤80%) | A (0% ≤ substrate protein remaining % ≤80%) | A (0% ≤ substrate protein remaining % ≤80%) | A (0% ≤ substrate protein remaining % ≤80%) | A (0% ≤ substrate protein remaining % ≤80%)
12 | O=C1CCN(N2C(=O)c3ccc(CN4CC(C5CCOc6cc(F)ccc65)C4)cc3C2=O)C(=O)N1 (stereo not drawn) [GT-07715, 2-(2,4-dioxotetrahydropyrimidin-1(2H)-yl)-5-((3-(7-fluorochroman-4-yl)azetidin-1-yl)methyl)isoindoline-1,3-dione] | B (80%< substrate protein remaining % ≤100%) | B (80%< substrate protein remaining % ≤100%) | B (80%< substrate protein remaining % ≤100%) | B (80%< substrate protein remaining % ≤100%) | A (0% ≤ substrate protein remaining % ≤80%) | A (0% ≤ substrate protein remaining % ≤80%)

— patent US20260356819A1, “OXOISOINDOLINYL-SUBSTITUTED […] DERIVATIVE AND USE THEREOF” (GLUETACS THERAPEUTICS (SHANGHAI) CO., LTD., priority 2023, published 2026)
